Test results as given in ChEMBL document CHEMBL3792365, “Dioxol and dihydrodioxin analogs of 2- and 3-phenylacetonitriles as potent anti-cancer agents with nanomolar activity against a variety of human cancer cells” (2016).

How the values were obtained:
Format in all cases: functional
SR = experiment: Growth inhibition of human SR cells at 10 uM after 48 hrs by sulforhodamine B assay; details: values are per cent of control
[1] = Growth inhibition of human SKOV3 cells at 10 uM after 48 hrs by sulforhodamine B assay; details: SK-OV-3, 48 h, values are per cent of control
[2] = Growth inhibition of human HCT116 cells at 10 uM after 48 hrs by sulforhodamine B assay; details: HCT-116, 48 h, values are per cent of control
[3] = Growth inhibition of human BT549 cells at 10 uM after 48 hrs by sulforhodamine B assay; details: BT-549, 48 h, values are per cent of control
HT-29 = experiment: Growth inhibition of human HT-29 cells at 10 uM after 48 hrs by sulforhodamine B assay; details: HT-29, 48 h, values are per cent of control
[4] = Growth inhibition of human SW620 cells at 10 uM after 48 hrs by sulforhodamine B assay; details: SW-620, 48 h, values are per cent of control
[5] = Growth inhibition of human SNB19 cells at 10 uM after 48 hrs by sulforhodamine B assay; details: SNB-19, 48 h, values are per cent of control
[6] = Growth inhibition of human OVCAR8 cells at 10 uM after 48 hrs by sulforhodamine B assay; details: OVCAR-8, 48 h, values are per cent of control
[7] = Growth inhibition of human Hs 578T cells at 10 uM after 48 hrs by sulforhodamine B assay; details: values are per cent of control
MDA-MB-231 = experiment: Growth inhibition of human MDA-MB-231 cells at 10 uM after 48 hrs by sulforhodamine B assay; details: MDA-MB-231, 48 h, values are per cent of control
[8] = Growth inhibition of human NCI-ADR-RES cells at 10 uM after 48 hrs by sulforhodamine B assay; details: values are per cent of control
[9] = Growth inhibition of human SF539 cells at 10 uM after 48 hrs by sulforhodamine B assay; details: SF-539, 48 h, values are per cent of control
[10] = Growth inhibition of human SF268 cells at 10 uM after 48 hrs by sulforhodamine B assay; details: SF-268, 48 h, values are per cent of control
U-251 = experiment: Growth inhibition of human U251 cells at 10 uM after 48 hrs by sulforhodamine B assay; details: U-251, 48 h, values are per cent of control
M14 = experiment: Growth inhibition of human M14 cells at 10 uM after 48 hrs by sulforhodamine B assay; details: M14, 48 h, values are per cent of control
MDA-MB-468 = experiment: Growth inhibition of human MDA-MB-468 cells at 10 uM after 48 hrs by sulforhodamine B assay; details: MDA-MB-468, 48 h, values are per cent of control
[11] = Growth inhibition of human DU145 cells at 10 uM after 48 hrs by sulforhodamine B assay; details: DU-145, 48 h, values are per cent of control
[12] = Growth inhibition of human OVCAR5 cells at 10 uM after 48 hrs by sulforhodamine B assay; details: OVCAR-5, 48 h, values are per cent of control
[13] = Growth inhibition of human Caki1 cells at 10 uM after 48 hrs by sulforhodamine B assay; details: CAKI-1, 48 h, values are per cent of control
[14] = Growth inhibition of human TK10 cells at 10 uM after 48 hrs by sulforhodamine B assay; details: TK-10, 48 h, values are per cent of control
[15] = Growth inhibition of human SF295 cells at 10 uM after 48 hrs by sulforhodamine B assay; details: SF-295, 48 h, values are per cent of control
[16] = Growth inhibition of human HCT15 cells at 10 uM after 48 hrs by sulforhodamine B assay; details: HCT-15, 48 h, values are per cent of control
NCI-H522 = experiment: Growth inhibition of human NCI-H522 cells at 10 uM after 48 hrs by sulforhodamine B assay; details: NCI-H522, 48 h, values are per cent of control
A549 = experiment: Growth inhibition of human A549/ATCC cells at 10 uM after 48 hrs by sulforhodamine B assay; details: A549, 48 h, values are per cent of control
T47D = experiment: Growth inhibition of human T47D cells at 10 uM after 48 hrs by sulforhodamine B assay; details: values are per cent of control
SK-MEL-5 = experiment: Growth inhibition of human SK-MEL-5 cells at 10 uM after 48 hrs by sulforhodamine B assay; details: SK-MEL-5, 48 h, values are per cent of control
MDA-MB-435 = experiment: Growth inhibition of human MDA-MB-435 cells at 10 uM after 48 hrs by sulforhodamine B assay; details: MDA-MB-435, 48 h, values are per cent of control
NCI-H322M = experiment: Growth inhibition of human NCI-H322M cells at 10 uM after 48 hrs by sulforhodamine B assay; details: values are per cent of control
K562 = experiment: Growth inhibition of human K562 cells at 10 uM after 48 hrs by sulforhodamine B assay; details: K562, 48 h, values are per cent of control
[17] = Growth inhibition of human LOXIMVI cells at 10 uM after 48 hrs by sulforhodamine B assay; details: LOX IMVI, values are per cent of control
A498 = experiment: Growth inhibition of human A498 cells at 10 uM after 48 hrs by sulforhodamine B assay; details: A498, 48 h, values are per cent of control
ACHN = experiment: Growth inhibition of human ACHN cells at 10 uM after 48 hrs by sulforhodamine B assay; details: values are per cent of control
SN12C = experiment: Growth inhibition of human SN12C cells at 10 uM after 48 hrs by sulforhodamine B assay; details: values are per cent of control
[18] = Growth inhibition of human UACC62 cells at 10 uM after 48 hrs by sulforhodamine B assay; details: UACC-62, 48 h, values are per cent of control
NCI-H460 = experiment: Growth inhibition of human NCI-H460 cells at 10 uM after 48 hrs by sulforhodamine B assay; details: NCI-H460, 48 h, values are per cent of control
NCI-H226 = experiment: Growth inhibition of human NCI-H226 cells at 10 uM after 48 hrs by sulforhodamine B assay; details: NCI-H226, 48 h, values are per cent of control
[19] = Growth inhibition of human COLO205 cells at 10 uM after 48 hrs by sulforhodamine B assay; details: COLO 205, 48 h, values are per cent of control
[20] = Growth inhibition of human OVCAR4 cells at 10 uM after 48 hrs by sulforhodamine B assay; details: OVCAR-4, 48 h, values are per cent of control
KM12 = experiment: Growth inhibition of human KM12 cells at 10 uM after 48 hrs by sulforhodamine B assay; details: KM12, 48 h, values are per cent of control
NCI-H23 = experiment: Growth inhibition of human NCI-H23 cells at 10 uM after 48 hrs by sulforhodamine B assay; details: NCI-H23, 48 h, values are per cent of control

Compound	growth, % of control at 10 µM (SR) [%]	growth, % of control at 10 µM [1] [%]	growth, % of control at 10 µM [2] [%]	growth, % of control at 10 µM [3] [%]	growth, % of control at 10 µM (HT-29) [%]	growth, % of control at 10 µM [4] [%]	growth, % of control at 10 µM [5] [%]	growth, % of control at 10 µM [6] [%]	growth, % of control at 10 µM [7] [%]	growth, % of control at 10 µM (MDA-MB-231) [%]	growth, % of control at 10 µM [8] [%]	growth, % of control at 10 µM [9] [%]	growth, % of control at 10 µM [10] [%]	growth, % of control at 10 µM (U-251) [%]	growth, % of control at 10 µM (M14) [%]	growth, % of control at 10 µM (MDA-MB-468) [%]	growth, % of control at 10 µM [11] [%]	growth, % of control at 10 µM [12] [%]	growth, % of control at 10 µM [13] [%]	growth, % of control at 10 µM [14] [%]	also measured
N#C/C(=C\c1ccc2c(c1)OCO2)c1ccc2c(c1)OCO2	26.2	85.5	57.5	49.6	39.6	42.9	95.9	83.8	89.7	66.8	41	79.4	81.2	77.2	50.8	54.9	92.5	97.9	66.8	91	growth, % of control at 10 µM [15]: 76.5%; growth, % of control at 10 µM [16]: 43.9%; growth, % of control at 10 µM (NCI-H522): 76.4%; growth, % of control at 10 µM (A549): 59.5%; growth, % of control at 10 µM (T47D): 67.7%; growth, % of control at 10 µM (SK-MEL-5): 75.9%; growth, % of control at 10 µM (MDA-MB-435): -5.7%; growth, % of control at 10 µM (NCI-H322M): 106%; growth, % of control at 10 µM (K562): 24.9%; growth, % of control at 10 µM [17]: 65.1%; growth, % of control at 10 µM (A498): 73.7%; growth, % of control at 10 µM (ACHN): 96.2%; growth, % of control at 10 µM (SN12C): 90.7%; growth, % of control at 10 µM [18]: 69.4%; growth, % of control at 10 µM (NCI-H460): 83.6%; growth, % of control at 10 µM (NCI-H226): 94.9%; growth, % of control at 10 µM [19]: 59.8%; growth, % of control at 10 µM [20]: 89.7%; growth, % of control at 10 µM (KM12): 42.2%; growth, % of control at 10 µM (NCI-H23): 83.2%
N#C/C(=C\c1cc2ccccc2s1)c1ccc2c(c1)OCO2	13.5	20.7	11.6	56.4	5	21	46.4	14	-5.4	24.3	-1.9	-10.1	23.8	18.4	20.6	14.1	5.1	50.4	41.2	42.7	growth, % of control at 10 µM [15]: 2.9%; growth, % of control at 10 µM [16]: 20.4%; growth, % of control at 10 µM (NCI-H522): -20.5%; growth, % of control at 10 µM (A549): 17.2%; growth, % of control at 10 µM (T47D): 70.4%; growth, % of control at 10 µM (SK-MEL-5): 16.6%; growth, % of control at 10 µM (MDA-MB-435): -37.2%; growth, % of control at 10 µM (NCI-H322M): 40.9%; growth, % of control at 10 µM (K562): 18.8%; growth, % of control at 10 µM [17]: 19.9%; growth, % of control at 10 µM (A498): -7.5%; growth, % of control at 10 µM (ACHN): 38.8%; growth, % of control at 10 µM (SN12C): 25.3%; growth, % of control at 10 µM [18]: 24%; growth, % of control at 10 µM (NCI-H460): 9.7%; growth, % of control at 10 µM (NCI-H226): 28.7%; growth, % of control at 10 µM [19]: -33.9%; growth, % of control at 10 µM [20]: 60.2%; growth, % of control at 10 µM (KM12): 6%; growth, % of control at 10 µM (NCI-H23): 31.1%
